For this data set the following is noted: solid crystalline form; no method or figures given.

This note sets out measurements from patent publication US20110257215A1, “NOVEL CO-CRYSTAL OF TIOTROPIUM BROMIDE” (Boehringer Ingelheim Pharma GmbH CO.KG, priority 2006, published 2011).

With `C[N+]1(C)C2CC(OC(=O)C(O)(c3cccs3)c3cccs3)CC1C1OC12.NC(N)=O.[Br-]` (stereo not shown) [tiotropium bromide-urea co-crystal], the hygroscopical behaviour result is given as “only very little hygroscopical behaviour”.
